Results: US4735959A, “Carboxylic acid amides and pharmaceutical compositions containing them” (Dr. Karl Thomae GmbH, priority 1981, dated 1988)
Read-outs that look alike come from different tables or passages of the source.

Test system: blood-sugar
Assay: Blood-sugar lowering activity in starved female rats after oral administration
Type: in vivo
Settings: for change in vivo at 1 mg/kg / change in vivo at 5 mg/kg / change in vivo at 10 mg/kg: Rattus norvegicus, po, read-out: Blood-sugar lowering activity, percent as compared with the controls
Method: The blood-sugar lowering activity of the test compounds was determined in home-bred female rats with weights of from 180 to 220 grams. Twenty-four hours before starting the test the animals were starved. Before the test the compounds were suspended in 1.5% methyl cellulose and administered to the animals by means of an esophageal tube.
Blood was taken from the retroorbital plexus vein before administration of the test compounds as well as each of 1, 2, 3, and 4 hours after administration. Fifty microliters of each sample were deproteinized with 0.5 ml of 0.33N perchloric acid and centrifuged. The glucose content was determined in the supernatant according to the Hexokinase method by means of an analysis photometer. The statistical evalulation was performed with the t-test according to Student with p=0.05.

[1] = 1 mg/kg orally, 3 hours, n.s. = not statistically significant
[2] = 1 mg/kg orally, 4 hours, n.s. = not statistically significant
[3] = 1 mg/kg orally, 1 hour, n.s. = not statistically significant
[4] = 1 mg/kg orally, 2 hours, n.s. = not statistically significant
[5] = 5 mg/kg orally, 1 hour, n.s. = not statistically significant
[6] = 5 mg/kg orally, 2 hours, n.s. = not statistically significant
[7] = 5 mg/kg orally, 3 hours, n.s. = not statistically significant
[8] = 5 mg/kg orally, 4 hours, n.s. = not statistically significant
[9] = 10 mg/kg orally (footnote *), 3 hours, n.s. = not statistically significant
[10] = 10 mg/kg orally (footnote *), 4 hours, n.s. = not statistically significant
[11] = 10 mg/kg orally (footnote *), 1 hour
[12] = 10 mg/kg orally (footnote *), 2 hours

Row | Structure (SMILES) | Blood-sugar lowering activity, percent as compared with the controls [1] | Blood-sugar lowering activity, percent as compared with the controls [2] | change in vivo at 1 mg/kg [3] [%] | change in vivo at 1 mg/kg [4] [%] | change in vivo at 5 mg/kg [5] [%] | change in vivo at 5 mg/kg [6] [%] | change in vivo at 5 mg/kg [7] [%] | change in vivo at 5 mg/kg [8] [%] | change in vivo at 1 mg/kg [1] [%] | change in vivo at 1 mg/kg [2] [%] | Blood-sugar lowering activity, percent as compared with the controls [9] | Blood-sugar lowering activity, percent as compared with the controls [10] | change in vivo at 10 mg/kg [11] [%] | change in vivo at 10 mg/kg [12] [%] | Blood-sugar lowering activity, percent as compared with the controls [7] | Blood-sugar lowering activity, percent as compared with the controls [8] | change in vivo at 10 mg/kg [9] [%] | change in vivo at 10 mg/kg [10] [%]
1 | O=C(Cc1ccc(C(=O)O)cc1)NC(c1ccccc1)c1cccc(Cl)c1N1CCCCC1 (stereo not drawn) [AS, 4-[(3-Chloro-α-phenyl-2-piperidino-benzyl)-aminocarbonylmethyl]-benzoic acid] | n.s. | n.s. | -21 | -13 | -45 | -44 | -42 | -32 |  |  |  |  |  |  |  |  |  | 
2 | CC/C=C(\NC(=O)Cc1ccc(C(=O)OCC)cc1)c1ccccc1N1CCCCC1 [B, (Z)-4-[(1-(2-Piperidino-phenyl)-1-buten-1-yl)-aminocarbonylmethyl]-benzoic acid ethyl ester] |  |  | -39 | -19 | -44 | -39 | -26 | -35 | -26 | -30 |  |  |  |  |  |  |  | 
3 | COCC(NC(=O)Cc1ccc(C(=O)O)cc1)c1ccccc1N1CCCCC1 (stereo not drawn) [Compound P, 4-[(2-Methoxy-1-(2-piperidino-phenyl)-1-ethyl)-aminocarbonylmethyl]-benzoic acid] | n.s. | n.s. | -37 | -19 | -49 | -43 | -34 | -22 |  |  |  |  |  |  |  |  |  | 
4 | CCCC/C=C(\NC(=O)Cc1ccc(C(=O)OCC)cc1)c1ccccc1N1CCCCC1 [E, (Z)-4-[(1-(2-Piperidino-phenyl)-1-hexen-1-yl)-aminocarbonylmethyl]-benzoic acid ethyl ester] |  |  | -23 | -23 | -46 | -40 | -38 | -26 | -12 | -18 |  |  |  |  |  |  |  | 
5 | O=C(Cc1ccc(C(=O)O)cc1)N/C(=C\Cc1ccccc1)c1ccccc1N1CCCCC1 [F, (Z)-4-[(3-Phenyl-1-(2-piperidino-phenyl)-1-propen-1-yl)-aminocarbonylmethyl]-benzoic acid] |  |  |  |  | -43 | -42 | -39 | -32 |  |  |  |  |  |  |  |  |  | 
6 | CC/C=C(\NC(=O)Cc1ccc(C(=O)O)cc1)c1ccccc1N1CCCC(C)(C)C1 [G, (Z)-4-[(1-(2-(3,3-Dimethyl-piperidino)-phenyl)-1-buten-1-yl)-aminocarbonylmethyl]-benzoic acid] |  |  | -44 | -42 |  |  |  |  | -37 | -31 |  |  |  |  |  |  |  | 
7 | CCCC(NC(=O)Cc1ccc(C(=O)O)cc1)c1ccccc1N1CCCC1 (stereo not drawn) [H, 4-[(1-(2-Pyrrolidino-phenyl)-1-butyl)-aminocarbonylmethyl]-benzoic acid] |  |  |  |  | -50 | -46 | -44 | -45 |  |  |  |  |  |  |  |  |  | 
8 | CCCC(NC(=O)Cc1ccc(C(=O)O)cc1)c1ccccc1N1CCCCCC1 (stereo not drawn) [M, 4-[(1-(2-Hexahydroazepino-phenyl)-1-butyl)-aminocarbonylmethyl]-benzoic acid] |  | n.s. | -33 | -30 | -46 | -43 | -40 | -36 | -21 |  |  |  |  |  |  |  |  | 
9 | CCCCCC(NC(=O)Cc1ccc(C(=O)O)cc1)c1ccccc1N1CCCCC1 (stereo not drawn) [N, 4-[(1-(2-Piperidino-phenyl)-1-hexyl)-aminocarbonylmethyl]-benzoic acid] |  |  |  |  | -42 | -42 | -37 | -33 |  |  |  |  |  |  |  |  |  | 
10 | O=C(Cc1ccc(C(=O)O)cc1)NC(CCc1ccccc1)c1ccccc1N1CCCCC1 (stereo not drawn) [O, 4-[(3-Phenyl-1-(2-piperidino-phenyl)-1-propyl)-aminocarbonylmethyl]-benzoic acid] |  |  |  |  |  |  |  |  |  |  | n.s. | n.s. | -38 | -31 |  |  |  | 
11 | N#CC(NC(=O)Cc1ccc(C(=O)O)cc1)c1ccccc1N1CCCCC1 (stereo not drawn) [Q, 4-[(α-Cyano-2-piperidino-benzyl)-aminocarbonylmethyl]-benzoic acid] |  |  |  |  | -28 | -13 |  |  |  |  |  |  |  |  | n.s. | n.s. |  | 
12 | CCCC(NC(=O)Cc1ccc(CO)cc1)c1ccccc1N1CCCCC1 (stereo not drawn) [R, 4-[(1-(2-Piperidino-phenyl)-1-butyl)-aminocarbonylmethyl]-benzyl alcohol] |  |  | -39 | -34 | -38 | -40 | -35 | -29 | -29 | -24 |  |  |  |  |  |  |  | 
13 | CCCC(NC(=O)Cc1ccc(CC(=O)O)cc1)c1ccccc1N1CCCCC1 (stereo not drawn) [S, 4-[(1-(2-Piperidino-phenyl)-1-butyl)-aminocarbonylmethyl]-phenyl-acetic acid] |  | n.s. | -29 | -20 | -49 | -42 | -30 | -17 | -10 |  |  |  |  |  |  |  |  | 
14 | CCCC(NC(=O)Cc1ccc(C=CC(=O)O)cc1)c1ccccc1N1CCCCC1 (stereo not drawn) [T, 4=[(1-(2-Piperidino-phenyl)-1-butyl)-aminocarbonylmethyl]-cinnamic acid] |  |  | -42 | -42 | -48 | -46 | -42 | -40 | -40 | -32 |  |  |  |  |  |  |  | 
15 | CCCC(NC(=O)Cc1ccc(C(=O)OCC(O)CO)cc1)c1ccccc1N1CCCCC1 (stereo not drawn) [U, 4-[(1-(2-Piperidino-phenyl)-1-butyl)-aminocarbonylmethyl]-benzoic acid 2,3-dihydroxy-propyl ester] |  |  | -39 | -35 | -43 | -43 | -49 | -45 | -29 | -24 |  |  |  |  |  |  |  | 
16 | CCCC(NC(=O)Cc1ccc(C(=O)O)cc1)c1ccc(F)cc1N1CCCCC1 (stereo not drawn) [V, 4-[(1-(4-Fluoro-2-piperidino-phenyl)-1-butyl)-aminocarbonylmethyl]-benzoic acid] |  |  | -37 | -23 | -45 | -41 | -46 | -40 | -30 | -18 |  |  |  |  |  |  |  | 
17 | CCCC(NC(=O)Cc1ccc(C(=O)O)cc1)c1ccc(OC)cc1N1CCCCC1 (stereo not drawn) [W, 4-[(1-(4-Methoxy-2-piperidino-phenyl)-1-butyl)-aminocarbonylmethyl]-benzoic acid] |  | n.s. | -36 | -25 | -46 | -45 | -39 | -37 | -16 |  |  |  |  |  |  |  |  | 
18 | C=C(NC(=O)Cc1ccc(C(=O)O)cc1)c1ccccc1N1CCCCCCCC1 [X, 4-[(1-(2-Octahydroazonino-phenyl)-1-ethenyl)-aminocarbonylmethyl]-benzoicacid] |  |  |  |  |  |  |  |  |  |  |  |  | -34 | -21 |  |  | -17 | -14
19 | CC(NC(=O)Cc1ccc(C(=O)O)cc1)c1cccc(Cl)c1N1CCCCC1 (stereo not drawn) [Y, 4-[(1-(3-Chloro-2-piperidino-phenyl)-1-ethyl)-aminocarbonylmethyl]-benzoic acid] |  |  |  |  | -32 | -24 | -16 | -18 |  |  |  |  |  |  |  |  |  | 
